Laboratory results reported in ChEMBL document CHEMBL1201862, “PubChem BioAssay data set” (2004).
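Test compounds were applied to cells in 96-well plates for 48 hours at 5 doses. GI50 marks 50% less growth.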 Active and inactive are the calls of the source. Cut-off read from the data, not from the text of the source: active = GI50 up to about 1.1 µM and inactive = higher.

Key:
Test in all cases: NCI tumour cell line growth inhibition, 48 h
NCI/ADR-RES = tested on: NCI/ADR-RES
786-0 = tested on: 786-0
PC-3 = tested on: PC-3
SF-539 = tested on: SF-539
ACHN = tested on: ACHN
M14 = tested on: M14
HOP-62 = tested on: HOP-62
DU-145 = tested on: DU-145
HOP-92 = tested on: HOP-92
CCRF-CEM = tested on: CCRF-CEM
HL-60 = tested on: HL-60
HT-29 = tested on: HT-29
BT-549 = tested on: BT-549
OVCAR-5 = tested on: OVCAR-5
SK-MEL-2 = tested on: SK-MEL-2
Hs-578T = tested on: Hs-578T
K562 = tested on: K562
HCT-15 = tested on: HCT-15
RXF 393 = tested on: RXF 393
SW-620 = tested on: SW-620
U-251 = tested on: U-251
SR = tested on: SR
MOLT-4 = tested on: MOLT-4
UACC-62 = tested on: UACC-62
HCT-116 = tested on: HCT-116
TK-10 = tested on: TK-10
NCI-H226 = tested on: NCI-H226
KM12 = tested on: KM12
Malme-3M = tested on: Malme-3M
OVCAR-8 = tested on: OVCAR-8
A498 = tested on: A498
NCI-H460 = tested on: NCI-H460
SN12C = tested on: SN12C
MCF7 = tested on: MCF7
SNB-19 = tested on: SNB-19
A549 = tested on: A549
EKVX = tested on: EKVX
SF-268 = tested on: SF-268
NCI-H23 = tested on: NCI-H23
SK-MEL-5 = tested on: SK-MEL-5
HCC 2998 = tested on: HCC 2998
SK-OV-3 = tested on: SK-OV-3
UO-31 = tested on: UO-31
SF-295 = tested on: SF-295
IGROV-1 = tested on: IGROV-1
OVCAR-3 = tested on: OVCAR-3
MDA-MB-435 = tested on: MDA-MB-435
MDA-N = tested on: MDA-N
T47D = tested on: T47D
RPMI-8226 = tested on: RPMI-8226
COLO 205 = tested on: COLO 205
MDA-MB-231 = tested on: MDA-MB-231
UACC-257 = tested on: UACC-257
NCI-H522 = tested on: NCI-H522
CAKI-1 = tested on: CAKI-1
OVCAR-4 = tested on: OVCAR-4
SNB-75 = tested on: SNB-75
SK-MEL-28 = tested on: SK-MEL-28
LOX IMVI = tested on: LOX IMVI

Q: What does the source list for `CC(=O)N1OC(C)CC1Nc1ccc(Br)cc1` (configuration not stated)?
A: GI50 (NCI/ADR-RES): > 100 µM (inactive); GI50 (786-0): > 100 µM (inactive); GI50 (PC-3): 1.04 µM (active); GI50 (SF-539): 5.77 µM (inactive); GI50 (ACHN): 0.415 µM (active); GI50 (M14): 1.6 µM (inactive); GI50 (HOP-62): 0.366 µM (active); GI50 (DU-145): 0.493 µM (active); GI50 (HOP-92): > 100 µM (inactive); GI50 (CCRF-CEM): 0.452 µM (active); GI50 (HL-60): 1.95 µM (inactive); GI50 (HT-29): 75.9 µM (inactive); GI50 (BT-549): 65.3 µM (inactive); GI50 (OVCAR-5): 96.2 µM (inactive); GI50 (SK-MEL-2): 2.62 µM (inactive); GI50 (Hs-578T): > 100 µM (inactive); GI50 (K562): 0.345 µM (active); GI50 (HCT-15): > 100 µM; GI50 (RXF 393): > 100 µM (inactive); GI50 (SW-620): 0.76 µM (active); GI50 (U-251): 1.99 µM (inactive); GI50 (SR): 1.42 µM (inactive); GI50 (MOLT-4): 0.971 µM (active); GI50 (UACC-62): 88.3 µM (inactive); GI50 (HCT-116): 4.03 µM (inactive); GI50 (TK-10): 14.7 µM (inactive); GI50 (NCI-H226): 4.39 µM (inactive); GI50 (KM12): 1.44 µM (inactive); GI50 (Malme-3M): > 100 µM (inactive); GI50 (OVCAR-8): > 100 µM (inactive); GI50 (A498): > 100 µM (inactive); GI50 (NCI-H460): 8.04 µM (inactive); GI50 (SN12C): 20.8 µM (inactive); GI50 (MCF7): 21.5 µM (inactive); GI50 (SNB-19): > 100 µM (inactive); GI50 (A549): 9.12 µM (inactive); GI50 (EKVX): > 100 µM (inactive); GI50 (SF-268): > 100 µM (inactive); GI50 (NCI-H23): > 100 µM (inactive); GI50 (SK-MEL-5): 6.31 µM (inactive); GI50 (HCC 2998): 3.05 µM (inactive); GI50 (SK-OV-3): > 100 µM (inactive); GI50 (UO-31): 0.0955 µM (active); GI50 (SF-295): > 100 µM (inactive); GI50 (IGROV-1): > 100 µM (inactive); GI50 (OVCAR-3): 82.4 µM (inactive); GI50 (MDA-MB-435): 0.577 µM (active); GI50 (MDA-N): 0.252 µM (active); GI50 (T47D): 1.34 µM (inactive)

Q: How did the GI50 (NCI/ADR-RES) turn out when `C=C(C)C12CC(COC(=O)c3ccccc3)C34OC5(OC1C3C1OC1(CO)C(O)C1(O)C(OC(=O)c3ccccc3)C(C)C(C(C)CCCCCCC5O)C14)O2` (configuration not stated) was run?
A: 42.4 µM (inactive)

Q: What about the GI50 (RPMI-8226) of the same molecule?
A: 18.8 µM (inactive)

Q: And the GI50 (786-0)?
A: > 61.8 µM (inactive)

Q: And the GI50 (PC-3)?
A: 38.8 µM (inactive)

Q: And the GI50 (SF-539)?
A: > 70.3 µM (inactive)

Q: What about the GI50 (COLO 205) of the same molecule?
A: < 0.01 µM (active)

Q: What about the GI50 (ACHN) of the same molecule?
A: 24.3 µM (inactive)

Q: And the GI50 (M14)?
A: 27.2 µM (inactive)

Q: And the GI50 (DU-145)?
A: 53.8 µM (inactive)

Q: What about the GI50 (HOP-92) of the same molecule?
A: > 100 µM (inactive)

Q: What about the GI50 (CCRF-CEM) of the same molecule?
A: 26.4 µM (inactive)

Q: And the GI50 (MDA-MB-231)?
A: > 78.2 µM (inactive)

Q: And the GI50 (HT-29)?
A: 19.5 µM (inactive)

Q: What about the GI50 (BT-549) of the same molecule?
A: > 100 µM (inactive)

Q: What about the GI50 (UACC-257) of the same molecule?
A: 49.3 µM (inactive)

Q: And the GI50 (OVCAR-5)?
A: 88.7 µM (inactive)

Q: And the GI50 (SK-MEL-2)?
A: > 100 µM (inactive)

Q: And the GI50 (NCI-H522)?
A: 46.5 µM (inactive)

Q: What about the GI50 (Hs-578T) of the same molecule?
A: 26.5 µM (inactive)

Q: What about the GI50 (K562) of the same molecule?
A: < 0.01 µM (active)

Q: And the GI50 (HCT-15)?
A: 54 µM

Q: And the GI50 (RXF 393)?
A: 52.6 µM (inactive)

Q: And the GI50 (U-251)?
A: 32.6 µM (inactive)

Q: And the GI50 (SR)?
A: 18.5 µM (inactive)

Q: And the GI50 (UACC-62)?
A: > 100 µM (inactive)

Q: And the GI50 (HCT-116)?
A: 52 µM (inactive)

Q: And the GI50 (TK-10)?
A: < 0.01 µM (active)

Q: What about the GI50 (NCI-H226) of the same molecule?
A: 40.7 µM (inactive)

Q: What about the GI50 (KM12) of the same molecule?
A: 40.8 µM (inactive)

Q: And the GI50 (Malme-3M)?
A: 25.2 µM (inactive)

Q: What about the GI50 (OVCAR-8) of the same molecule?
A: 60.4 µM (inactive)

Q: What about the GI50 (A498) of the same molecule?
A: 60.4 µM (inactive)

Q: And the GI50 (CAKI-1)?
A: 56.5 µM (inactive)

Q: What about the GI50 (NCI-H460) of the same molecule?
A: 33.6 µM (inactive)

Q: What about the GI50 (SN12C) of the same molecule?
A: 37.8 µM (inactive)

Q: And the GI50 (OVCAR-4)?
A: > 100 µM (inactive)

Q: And the GI50 (MCF7)?
A: 72.6 µM (inactive)

Q: What about the GI50 (SNB-19) of the same molecule?
A: > 100 µM (inactive)

Q: What about the GI50 (EKVX) of the same molecule?
A: 58.6 µM (inactive)

Q: What about the GI50 (SF-268) of the same molecule?
A: 52.1 µM (inactive)

Q: What about the GI50 (NCI-H23) of the same molecule?
A: 56.2 µM (inactive)

Q: And the GI50 (SK-MEL-5)?
A: 11.6 µM (inactive)

Q: What about the GI50 (SNB-75) of the same molecule?
A: > 82.8 µM (inactive)

Q: What about the GI50 (HCC 2998) of the same molecule?
A: < 0.01 µM (active)

Q: What about the GI50 (SK-OV-3) of the same molecule?
A: > 100 µM (inactive)

Q: What about the GI50 (SK-MEL-28) of the same molecule?
A: > 49.5 µM (inactive)

Q: And the GI50 (UO-31)?
A: 70.1 µM (inactive)

Q: And the GI50 (SF-295)?
A: 31.2 µM (inactive)

Q: And the GI50 (IGROV-1)?
A: > 72.8 µM (inactive)

Q: And the GI50 (OVCAR-3)?
A: 63 µM (inactive)

Q: And the GI50 (LOX IMVI)?
A: 66.5 µM (inactive)

Q: And the GI50 (MDA-N)?
A: 25.9 µM (inactive)

Q: What about the GI50 (T47D) of the same molecule?
A: > 87.9 µM (inactive)
